Experimental data published in patent US20070037783A1, “Migrastatin analogs and uses thereof” (priority 2003, published 2007).

Assays:
tumor cell migration = conditions: literature value for natural migrastatin; read-out: IC50, wound healing assay (reported activity); cited from earlier work
[1] = tested on: adherent cells (e.g. KYSE-520 cells); test: Wound healing (scratch) assay (preliminary, Table 2); format: cell-based; conditions: 28 to 30 h, compared to 100 μM Migrastatin, tested 200, 100, 50, 25, 10 μM
Procedure: 2. Wound Healing Assay (Table 2)
The wound healing assay was performed based on the method described by Nakae et al. (Nakae et al., J. Antibiotics (2000), 53, 1130-1136). Briefly, adherent cells were grown in a suitable media to confluence (e.g. KYSE-520 cells in RPMI-1640 with 10% FBS). Cells were starved for 24 h in serum free media. A scratch (ca. 0.5 mm) was applied and the cell layer was washed twice with PBS after removal of the media. Fresh, serum free media with the test compound at the desired concentration was added and the cells were incubated for 28 to 30 h at 37° C., 5% CO2. The scratch size was compared to that observed for cells exposed to 100 μM Migrastatin. Test compounds associated with a scratch size equal to or larger than that observed for cells exposed to 100 μM Migrastatin were deemed to have cell migration inhibitory activity at least equal to Migrastatin.

[2] = Mouse plasma stability study (HPLC); format: in vitro ADME; conditions: stable = intensity of HPLC signal unchanged over 60 min of incubation
Procedure: Mouse Plasma Stability Studies (Table 5): HPLC conditions: The sample is injected and separated using an Inertsil ODS3 6u 3×150 mm column with a mobile phase of MeCN and water (50% for migrastatin) at a flow of 0.4 mL/min, monitored at 220 nm at 0.02 AUFS (the retention time for migrastatin is ca. 4 min, the identity of this peak was confirmed by mass spectral analysis). Incubation and sample preparation conditions: A solution (ca. 30 mM) of chemical compound (Table 5) in DMSO is prepared. 2 μL of the solution is added to a mixture containing 200 μL of mouse plasma and 800 μL of PBS. The resulting solution is put into a water bath at 37° C., and 100 μL of sample is withdrawn at 10, 20, 30, 45, and 60 min. The precipitate is removed by centrifugation and 20 μL of the supernatant is injected onto the HPLC.

cells = test: Chamber cell migration assay, CyQuant readout (preliminary, Table 3); format: cell-based; conditions: 36 h, tested 200, 100, 50, 25, 10 μM
Procedure: 3. Chamber Cell Migration Assay (Table 3)
Cells were grown in an appropriate media to 70 to 80% confluence and incubated in serum and growth factor free media for 24 h. Cells were detached by typsin treatment, collected by centrifugation and resuspended in serum free media to a final concentration of 150,000 cells/mL. 400 μL of the cell suspension were loaded into a fibronectin coated insert for 24 well multidishes. 750 μL fully supplemented media were applied to the compartment under the insert. To both chambers the inhibitor was added at the intended concentration and the plates were incubated for 36 h at 37° C., 5% CO2. […] The resulting CyQuant assay solution was transferred to the cavities of a 96 well microtiter plate and the fluorescence signal was recorded in an appropriate reader. The CyQuant dye forms a highly fluorescent complex with DNA, thus the fluorescence signal is proportional to the number of cells that migrated throught he membrane in the presence of the test compound (N^inh). […] The positive control fluorescent reading correlates with the number of cells that migrate through the membrane in the absence of inhibitor (N^+). […] The negative control fluorescent reading correlates with the number of cells that migrate through the membrane through non-directed processes (N^−). The anti-migratory effect of a test compound is determined by the ratio (N^inh−N^−)/(N^+−N^−).

[3] = tested on: HUVECs (human umbilical vein endothelial cells); test: Boyden chamber cell migration assay with HUVECs; format: cell-based; conditions: Homo sapiens, HUVEC, read-out: IC50 (HUVEC)
Procedure: (§1) Chamber Cell Migration Assay (Tables 4 and 6): Cell migrations were assayed with Boyden chambers [8.0 μm pore size, polyethylene terephthalate membrane, FALCON cell culture insert (Becton-Dickinson)]. 4T1 mouse breast tumor cells or HUVECs were trypsinized and counted. 300 μl of 5-10×10^4 cells in serum-free medium was added to the upper chamber and 500 μl of medium with 10% fetal bovine serum (FBS) was added to the lower chamber. The transwells were incubated for 6-8 h at 37° C. with different concentrations of chemical compound in both upper and lower chamber. Cells on the inside of the transwell inserts were removed with a cotton swab, and cells on the underside of the insert were fixed and stained. Photographs of three random regions were taken and the number of cells was counted to calculate the average number of cells that have transmigrated.

HUVEC = test: Tube formation assay (preliminary, Table 1); format: cell-based, human; conditions: minimal concentration causing definite disturbance of tube network, 16-18 h, tested 200, 100, 50, 25, 10 μM
Procedure: 1. Tube Formation Assay (Table 1):
A protocol was designed based on the instructions from the provider (BD Bioscience, San Jose, Calif.). Briefly, wells of a 48 well culture dish were covert with 150 μL matrigel and the matrigel was gelatinized for 30 min at 37° C. A 80-90% confluent HUVEC (BD Bioscience, San Jose, Calif.) culture was trypsin treated, the detached cells were collected by centrifugation and resuspended in EGM-2 media (BD Bioscience, San Jose, Calif.). Cell concentration was adjusted to 100.000 cells/mL. 400 μL of the cell suspension were filled in the matrigel coated wells, and a solution of the inhibitor was added to the intended final concentration. The plates were incubated at 37° C. with 5% CO2 for 16-18 h. Media was removed, and the matrigel surface was washed twice with 500 μL PBS before cells were labeled with 250 μL 8 μM Calcein AM (Pierce, Rockford, Ill.) in PBS for 30 min at 37° C. After two additional washing steps (500 μL PBS) cells were visualized under an inverted microscope. Fluorescence was excited at 488 nm and recorded at 538 nm. The minimum effect concentration was defined as the minimal inhibitor concentration that caused a definite disturbance of the complexity of the formed tube network.

[4] = tested on: 4T1 mouse breast tumor cells; test: Wound-healing assay with 4T1 cells (FIG. 6); format: cell-based; conditions: with serum; 200 μM; overnight
Source text: In the wound healing assay, standard scratches (i.e., wounds) were made through a confluent 4T1 cell layer. In the absence of serum, cells would not migrate across the empty space created by application of the scratch. Upon addition of serum containing migration-enabling factors, migration of 4T1 cells across the scratch was induced. Exposure to these cells to inventive compounds allowed the evaluation of the cell migration inhibitory activity of these compounds.
Wound-Healing Assay (See FIG. 6). 4T1 mouse breast tumor cells in RPMI-1640 medium containing 10% fetal bovine serum (FBS) were seeded into wells of 24-multiwell plates (Becton-Dickinson). After cells grew to confluence, wounds were made with sterile pipette tips. Cells were washed with Phosphate Buffered Saline (PBS) and refreshed with growth medium containing different concentrations of chemical compounds. After overnight incubation at 37° C., cells were fixed and photographed.

[5] = tested on: 4T1 mouse breast tumor cells; test: Boyden chamber cell migration assay with 4T1 tumor cells; format: cell-based; conditions: Mus musculus, read-out: IC50 (4T1 tumor cells)
Procedure: The biological evaluation of the compounds (in terms of their ability to inhibit cell migration) was accomplished in a Boyden chamber cell migration assay. In this assay, mouse breast tumor cells (4T1 cells) or endothelial cells (HUVECs) are seeded on the upper chamber of a transwell insert. Growth factor-containing serum is added to the lower chamber.
as §1, with “The transwells were incubated for 6-8 h at 37° C. with different concentrations of chemical compound in both upper and lower chamber.” left out

4T1 tumor cells = test: Cell proliferation assay (MTT); conditions: Mus musculus, 4T1, 48 h, read-out: IC50, 4T1 cell proliferation
Procedure: Cell Proliferation Assay: 4×10^4 of 4T1 tumor cells in RPMI-1640 medium containing 10% FBS were seeded into wells of 96-multiwell plates (Becton-Dickinson) in the presence or absence of chemical compounds and then incubated at 37° C. for 48 h. An MTT kit (Cell Proliferation Kit I, Roche) (a colorimetric assay) was used to quantify cell proliferation and viability. The number of living cells, thus the total metabolic activity, directly correlates to the amount of purple formazan crystals formed (monitored by the absorbance).

In the case of `CO[C@H]1/C=C/CC/C=C/C(=O)O[C@H]([C@H](C)C(=O)CCCC2CC(=O)NC(=O)C2)/C(C)=C\[C@@H](C)[C@@H]1O` [migrastatin (1), Migrastatin], the IC50 (tumor cell migration) is listed as 29 µM, the Minimum effect concentration [1] is listed as 100 µM and the “stability (mouse plasma), in words” value [2] is listed as “stable^1”. For the same compound, the “stability (mouse plasma), in words” value ([2]; listed as migrastatin) was “completely inert toward lactone opening”, the IC50 (cells) was 200 µM and the IC50 [3] was 65 µM. For the same compound, the Minimum effect concentration (HUVEC) was 100 µM, the “inhibition of 4T1 cell migration across the scratch, in words” value [4] was “not as great” and the IC50 [5] was 29 µM. For the same compound, the IC50 (4T1 tumor cells) was 42 µM.
